Experiments:
[1] = target: T1, dihydrooroate dehydrogenase (Homo sapiens, UniProt Q02127); experiment: dihydroorotate dehydrogenase inhibition, U-937 mitochondrial/microsomal fraction, DCIP absorbance at 620 nm; type: biochemical; conditions: DHODH of human U-937 cell mitochondrial/microsomal fraction; 37° C., 120 minutes
T1 construct: ultracentrifugation at 4° C. and 120,000×g for 60 minutes afforded a mitochondrial/microsomal fraction; endogenous in cells; host or cells: U-937 (human histiocytic lymphoma cell line), mitochondrial/microsomal fraction
Procedure: Method of Testing dihydrooroate dehydrogenase Inhibition
Human U-937 cell (human histiocytic lymphoma cell line) was sonicated in a homogenizing buffer (20 mM Tris-HC1, pH 7.4, containing 2 mM EDTA and protease inhibitor cocktail), and this was centrifuged at 4° C. and 1,200×g for 15 minutes to remove cell debris. Further, ultracentrifugation at 4° C. and 120,000×g for 60 minutes afforded a mitochondrial/microsomal fraction. The resulting fraction was quantitated for a protein, and prepared to 10 mg/ml, which was freezing-stored in a −40° C. in a refrigerator until measurement. To 150 μl of the reaction solution (50 mM Tris-HC1, pH 7.4, containing 0.1% Triton X-100, 1 mM KCN, 100 μM coenzyme Q10, 200 μM DCIP), were added 10 μl of a dilution series of the compound and 0.2 mg of a mitochondrial/microsomal fraction, followed by pre-incubation at 37° C. for 30 minutes. Then, 20 μl of a 5 mM DHO solution (final concentration […]), which is a substrate, was added, this was incubated at 37° C. for 120 minutes, and an absorbance at a measurement wavelength of 620 nm was measured. A rate of suppression of a compound at each concentration relative to a change in an absorbance due to the enzyme reaction was obtained, and a concentration indicating 50% inhibition (IC50 value) was calculated to assess the inhibition activity of the compound.

[2] = tested on: anti-OVA IgE antibody; experiment: suppression of IgE antibody production to anti-ovalbumin (OVA) in immunized mice, PCA titer; type: in vivo; conditions: anti-OVA IgE antibody value (PCA titer, Log2 of maximum serum dilution rate) in BALB/c mice
Procedure: Effect of Suppression of IgE Antibody Production to Anti-Ovalbumin (OVA)
BALB/c mice (female, 8 to 10 week old) purchased from Japan Charles River (Kanagawa) and Wistar rats (female, 8 to 10 week old) purchased from Japan SLC (Sizuoka) were used.
BALB/c mice were immunized by intraperitoneally injecting 0.2 ml of a solution obtained by suspending 2 μg of ovalbumin (OVA) and an aluminum hydroxide gel (1 mg) in a brine. After ten days, blood was taken from a heart, the serum was separated, and an IgE antibody value was measured.
[…] Administration was performed from immunization date to the day before blood collection for consecutive 10 days.
4) Measurement of Anti-OVA IgE Antibody Value (PCA Titer)
The resulting mouse serum was prepared into a 2-fold dilution series with a brine, and each 50 μl of this was subcutaneously injected into a back of a pre-shaved Wistar rat. After 24 hours, 0.5 ml of a brine containing 1 mg of OVA and 5 mg of an Evans Blue dye was intravenously injected to induce a passive skin anaphylactic reaction (PCA).

[3] = tested on: Human lymphocyte; experiment: suppression of IgE antibody production in human lymphocyte stimulated with anti-human CD40 antibody and IL-4; type: cell-based; conditions: 216 h; IgE antibody production by human lymphocyte, anti-human CD40 antibody + IL-4, cultured for 9 days, ELISA
Procedure: Effect of Suppressing Antibody Production Using Human Lymphocyte
1) Human Peripheral Blood
Human peripheral blood was collected with a plastic syringe containing heparin (final concentration 1.5%) from a vein of an adult healthy person, and subjected to collection of lymphocyte immediately after blood collection.
To the RPMI medium (Sigma) were added 10% of fetal bovine serum, (HyClone Lab.) which had been immobilized at 56° C. for 30 minutes, penicillin (100 units/ml) and streptomycin (100 μg/ml) (Invitrogen), which was used.
The present compound was dissolved in dimethyl sulfoxide (Nakalai Tesque) to 2 mg/ml and, thereafter, the solution was diluted with a medium to a final concentration of 0.01 pg/ml to 10 μg/ml.
Human peripheral blood was mixed with an equal amount of PBS-10 mM EDTA, 10 ml of this was overlaid on a tube containing 3 ml of Ficoll-Paque Plus (Pharmacia Biotech), followed by centrifugation at room temperature and 300×g for 30 minutes to obtain a lymphocyte layer. The collected cell suspension was centrifugation-washed with a sterilized Hanks's balanced salt solution (Invitrogen), passed through a nylon mesh, and centrifugation-washed with a medium, which was used in an experiment as human lymphocyte.
5) Inducement of IgE Antibody Production Due to B cell Stimulation
Human lymphocyte was seeded on a 96-well culturing plate (Sumitomo Bakelite) to 2×10^5 cells per well, and the compound, an anti-human CD40 antibody (Pharmingen, 2 μg/ml), and human recombinant interleukin-4 (IL-4) (PEPROTECH, 0.1 μg/ml) were added, followed by culturing at 37° C. under the presence of 5% CO2 (0.2 ml/well). After cultured for 9 days, an amount of an antibody produced in the supernatant was quantitated by a specific ELISA method.
6) Quantitation of IgE Antibody
For quantitating IgE, a commercially available kit, MESACUP IgE Test (Medical & Biological Laboratories Co., Ltd.) was used. An experimental method was according to the manual, an experiment was performed duplicately, and an average was obtained.

[4] = dose 40 mg/kg orally for consecutive 10 days
[5] = dose 10 mg/kg orally for consecutive 10 days

T1 sequence (Q02127 whole entry): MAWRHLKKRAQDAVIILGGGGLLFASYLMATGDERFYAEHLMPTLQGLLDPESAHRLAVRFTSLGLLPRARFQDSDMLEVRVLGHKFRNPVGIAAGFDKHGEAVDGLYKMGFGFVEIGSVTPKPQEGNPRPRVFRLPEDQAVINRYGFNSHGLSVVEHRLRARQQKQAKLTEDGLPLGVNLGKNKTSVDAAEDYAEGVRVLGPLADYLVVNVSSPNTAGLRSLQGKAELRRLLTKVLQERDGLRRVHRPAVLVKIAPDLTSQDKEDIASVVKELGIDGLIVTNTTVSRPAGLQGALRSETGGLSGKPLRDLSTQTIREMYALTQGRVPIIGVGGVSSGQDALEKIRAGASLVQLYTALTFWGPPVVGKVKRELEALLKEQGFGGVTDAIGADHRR

Row | Structure (SMILES) | IC50 [3] | PCA [2, 4] | PCA [2, 5] | further results
1 | C/C(=C\c1ccc(-c2ccc3[nH]ccc3c2)cc1)C(=O)O [Compound 1] |  |  |  | melting point: 195 to 198 °C
2 | C/C(=C\C(=O)NC(C)C)c1cc(C)c(-c2ccc3[nH]ccc3c2)cc1C [Compound 252] | 75 ng/mL | 0< |  | IC50 [1]: 13.6 nM
3 | Cc1cc(-c2ccc(NC3CCCC3)cc2)c(C)cc1/C=C(\F)C(=O)NCCC(=O)O [Compound 408] | 8 ng/mL | 0< |  | 
4 | COc1cc(-c2ccc(NC(C)C)cc2F)c(OC)cc1/C=C(\C)C(=O)O [Compound 22] |  |  |  | melting point: 213 to 216 °C
5 | COc1cc(-c2ccc(NC(C)C)cc2F)c(OC)cc1/C(C)=C/C(=O)NC(C)C [Compound 40] | 3.7 ng/mL | 1.3 |  | 
6 | CC/C(=C\c1cc(C)c(-c2ccc(NC(C)C)cc2)cc1C)C(=O)NC1CCCC1 [Compound 142] | 8.4 ng/mL |  | 0.0 | 
7 | Cc1cc(-c2ccc(NC3CCCC3)cc2)c(C)cc1/C=C(\F)C(=O)NC(C)C [Compound 397] | 0.3 ng/mL |  |  | IC50 [1]: 6.84 nM; PCA ([2]; dose 20 mg/kg orally for consecutive 10 days): 0<
8 | C/C(=C\c1ccc(-c2ccc3[nH]ccc3c2)cc1)C(=O)NC1CCCC1 [Compound 4] |  |  |  | melting point: 154 to 157 °C
9 | C/C(=C\c1cc(C)c(-c2ccc3[nH]ccc3c2)cc1C)C(=O)NC(C)C [Compound 76] | 1.6 ng/mL |  | 4.3 | 
10 | C/C(=C\c1cc(F)c(-c2ccc(NC(C)C)cc2)cc1F)C(=O)NCC(=O)O [Compound 21] |  |  |  | melting point: 156 to 158 °C
11 | C/C(=C\c1cc(C)c(-c2ccc(NC(C)C)cc2F)cc1C)C(=O)NC(C)C [Compound 122] | 0.5 ng/mL |  | 4.7 | IC50 [1]: 10.5 nM
12 | Cc1cc(-c2ccc(NC(C)C)cc2F)c(C)cc1/C=C(/F)C(=O)NC(C)C [Compound 201] | 0.6 ng/mL |  | 5.3 | IC50 [1]: 5.17 nM
13 | C/C(=C\c1c(C)c(C)c(-c2ccc(NC(C)C)cc2F)c(C)c1C)C(=O)N[C@H](C)C(=O)O [Compound 420] | 39 ng/mL | 0< |  | 

The next lines start with results.

Row | IC50 [3] | Structure (SMILES) | PCA [2, 4] | PCA [2, 5] | further results
14 | 41 ng/mL | CC/C(=C\c1c(C)c(F)c(-c2ccc(NC(C)C)cc2)c(C)c1F)C(=O)N[C@H](C)C(=O)O [Compound 495] |  | 4.7 | 
15 | 4.8 ng/mL | CC/C=C/CNc1ccc(-c2c(C)c(OC)c(/C=C(\C)C(=O)O)c(C)c2OC)cc1 [Compound 585] |  | 1.0 | 
16 | 60 ng/mL | CCS(=O)(=O)NC(=O)/C(C)=C/c1cc(C)c(-c2ccc(NCc3ccco3)cc2F)cc1C [Compound 347] | 2.0 |  | IC50 [1]: 6.16 nM
17 | 13.5 ng/mL | C/C(=C\c1c(C)c(F)c(-c2ccc(NC(C)C)cc2)c(C)c1F)C(=O)O [Compound 486] |  | 0< | 
18 | 6.4 ng/mL | COc1c(C)c(-c2ccc(NCc3ccc(C)o3)cc2)c(OC)c(C)c1/C=C(\C)C(=O)O [Compound 571] |  | 1.3 | 
19 | 7.2 ng/mL | COc1c(C)c(-c2ccc(NC3CCCCC3)cc2)c(OC)c(C)c1/C=C(\C)C(=O)O [Compound 559] |  | 4 | 
20 | 0.9 ng/mL | COc1c(C)c(-c2ccc(NC(C)C)cc2)c(OC)c(C)c1/C=C(\C)C(=O)O [Compound 526] | 2.7 |  | 
